Experimental data from patent US9402925B2, “Probes and methods of imaging a bacterial infection” (The Board of Trustees of the Leland Stanford Junior …, priority 2013, dated 2016).
“Also recorded” adds a separate entry of the source. Like-named read-outs stand apart in the source and are kept apart here.

How the values were obtained:
Escherichia coli = experiment: Competition assay: blocking of 3H-maltose uptake by E. coli; assay type: cell-based; conditions: co-incubation, 1 mM; 3H-labeled maltose uptake for 10 mins; FIG. 2.4
Description: Coli and a mammalian cell line (EL4) were exposed to [^18F] 7. […] 7 by E. […] The uptake in E. Coli could also be blocked by co-incubation with 1 mM of cold maltose (98% blocking, p<0.0003), the natural substrate of the transporter. […] Here we allowed bacteria to take up ^3H-labeled maltose for 10 mins.

E-.Coli (ATCC33456) [1] = experiment: Competition assay: blocking of 18F-fluoromaltose uptake in E. coli by co-incubation; assay type: cell-based, Escherichia coli; conditions: co-incubation with 1 mM
Description: (§1) A strain of E-.Coli (ATCC33456) and a mammalian cell line (EL4) were exposed to 1-[^18F]-fluoromaltose or [^18F]-6-fluoromaltose. All bacteria and cells were then washed in 1×PBS, lysed and radioactivity of each well was determined by gamma counter for ^18F samples. All results were done in triplicate and are expressed in counts per minute (CPM), standard errors were determined and t tests performed. The uptake in E. Coli could also be blocked by co-incubation with 1 mM of cold maltose or 1 mM of 1-fluoromaltose.
(§2) To evaluate the ability of bacteria and cells to uptake [^18F]-6-fluoromaltose (7) and 1-[^18F]-fluoromaltose (11), a strain of E. Coli and a mammalian cell line (EL4) were exposed to 7 and 11. […] The uptake in E. Coli could also be blocked by co-incubation with 1 mM of cold maltose (98% blocking, p<0.0003), the natural substrate of the transporter. Likewise, ^3H-maltose uptake in E. Coli was blocked both with 1 mM maltose and 1-fluoromaltose (FIG. 2.4).

[2] = In vivo stability of 1-[18F]fluoromaltose
[3] = PBS, human and mouse serum at 37° C.
Description: Serum (human or mouse) was centrifuged at about 4° C., maximum speed for about 10 min. About 330 μL of supernatant was transferred to an Eppendorf vial containing 20 μL of formulated radiolabelled 6-[^18F]fluoromaltose (50-100 μCi minimum). For control, same volume of radiolabelled compound in 330 μl PBS was used. After vortexing the radiolabelled mixtures, 70 μL aliquots transferred to Eppendorf tubes and incubated at about 37° C. At predetermine time points (e.g., 0, 5, 15, 30, 60 min) 140 μL of ice-cold methanol were added to corresponding samples to stop metabolism. After vortexing and centrifuging samples (10 min max speed), the supernatants were transferred to HPLC vials for HPLC analysis.
The percentage of intact 6-[^18F]fluoromaltose in PBS, human and mouse serum at 37° C. was determined by HPLC.

E-.Coli (ATCC33456) [4] = experiment: In vitro uptake assay in E. coli; assay type: cell-based, Escherichia coli; conditions: radioactivity by gamma counter, CPM, FIG. 2.3
Description: as §1, §2

[5] = tested on: mammalian cell line (EL4); experiment: In vitro uptake assay in mammalian cell line EL4; assay type: cell-based; conditions: 60 minutes post incubation with tracer
Description: as §1, §2

OC[C@H]1O[C@H](O[C@H]2[C@H](O)[C@@H](O)C(F)O[C@@H]2CO)[C@H](O)[C@@H](O)[C@@H]1O (stereo partly drawn) [1-fluoromaltose]
blocking of 3H-maltose uptake in E. Coli (Escherichia coli): completely blocked; also recorded: effectively compete
blocking of 18F-fluoromaltose uptake in E. Coli (E-.Coli (ATCC33456) [1]): blocked

OC[C@H]1O[C@H](O[C@H]2[C@H](O)[C@@H](O)C([18F])O[C@@H]2CO)[C@H](O)[C@@H](O)[C@@H]1O (stereo partly drawn) [1-[^18F]-fluoromaltose, 4-O-(α-D-glucopyranosyl)-1-deoxy-1-[^18F]-fluoro-D-glucopyranoside]
stability in vivo (de-fluorination) [2]: not stable in vivo and very fast de-fluorinated
uptake of [18F]fluoride ion by the bones ([2]; after de-fluorination): very high

OC[C@H]1O[C@H](O[C@H]2[C@H](O)[C@@H](O)C(O)O[C@@H]2C[18F])[C@H](O)[C@@H](O)[C@@H]1O (stereo partly drawn) [6-[^18F]-fluoromaltose, 4-O-(α-D-glucopyranosyl)-6-deoxy-6-[^18F]-fluoro-D-glucopyranoside]
percentage intact 6-[18F]fluoromaltose ([3]; 1 h): ~96%
percentage intact 6-[18F]fluoromaltose ([3]; 2 h): ~65%
uptake by E. Coli (E-.Coli (ATCC33456) [4]): take up
uptake by E. Coli (E-.Coli (ATCC33456) [4]; listed as [^18F]-6-fluoromaltose): time dependent
uptake by mammalian cell line (EL4) [5]: minimal

OC[C@H]1O[C@H](O[C@H]2[C@H](O)[C@@H](O)C(O)O[C@@H]2CO)[C@H](O)[C@@H](O)[C@@H]1O (mixture of isomers) [maltose]
blocking of 3H-maltose uptake in E. Coli (Escherichia coli): completely blocked; also recorded: effectively compete
blocking of 18F-fluoromaltose uptake in E. Coli (E-.Coli (ATCC33456) [1]): completely blocked
blocking of [18F]-6-fluoromaltose uptake in E. Coli (E-.Coli (ATCC33456) [1]; p<0.0003): 98%
